Measured values published in publication PMC10649274 (International Journal of Molecular Sciences, 2023).
Where two headings read alike, the source gives them in different places.

Key:
native NMDA receptors [1] = assay: Analysis of voltage dependence of NMDA receptor block (Woodhull model with voltage-independent component, Equation (2)); type: cell-based, rat
Method: NMDA receptors were activated with 100 µM NMDA plus 10 µM glycine unless otherwise stated. The percentages of blocking of the steady-state or peak currents by different drug concentrations were measured at −80, −30 or +30 mV holding voltages. Kinetics of transient processes of more than 20 ms duration were approximated with single or double exponential functions. In case of double exponential fitting, the weighted time constant was used.
The voltage dependence of compounds’ action was analyzed with the classical Woodhull model with the addition of a voltage-independent component. […] Kb is the affinity of a drug for the channel, and δ is the electrical depth of the binding site. The δ value reflects the fraction of membrane electric field that the charged blocking molecule crosses on its pathway between the external media and the binding site in the channel.
Thus, we deduced Equation (2), taking it into account and assuming that the binding to the deep and shallow site is independent:(2) B=100−100/(1+C/(Kvd∗exp〖Fzδ/RTV〗)+C/Kvi+(C∗C)/((Kvd∗exp〖Fzδ/RTV〗∗Kvi))
In this equation, Kvd is the affinity of the drug to the deep site, Kvi—the affinity of the drug to the shallow site, and other parameters are the same as in Equation (1).
All experimental data are presented as the mean ± SD estimated from at least four experiments (cells). Significance of the effects was tested with t-tests. Differences were considered significant at p < 0.05. Concentration dependencies were approximated with Hill equation. Voltage dependencies were approximated with Equation (2). […] Approximation error values were taken as the precision measures.

native NMDA receptors [2] = conditions: cited from earlier work
native NMDA receptors [3] = assay: Whole-cell patch clamp of NMDA plus glycine induced currents in isolated CA1 pyramidal neurons; type: cell-based, rat
Method: The rats were anesthetised with sevoflurane and then decapitated. The brains were brought out quickly and cooled to 2–4 °C. […] All experiments were performed at room temperature.
Vibrodissociation method was used to free CA1 pyramidal neurons from slices. This method allows for isolating cells without enzymatic treatment and keeping them in more native state. Pyramidal cells were isolated from the stratum pyramidale and distinguished from non-pyramidal cells on the basis of pyramidal-like somata and preserved apical dendrites.
To record membrane currents in response to applications of NMDA and glycine, the whole-cell configuration of patch clamp technique was used. Series resistance (<20 MΩ) was compensated by 70–80% and monitored during experiments. Only cells with stable holding currents were used in further analysis. The current signals were amplified using EPC-8 (HEKA Electronics, Lambrecht, Germany), filtered at 5 kHz, sampled, and stored on a personal computer. RSC-200 (BioLogic Science Instruments, Claix, France) perfusion system was used to apply the drugs under computer control. […] The pipettes with resistance of 2–5 MΩ were filled with the following solution (in mM): CsF 100, CsCl 40, NaCl 5, CaCl2 0.5, EGTA 5, HEPES 10 (pH adjusted to 7.2 with CsOH). […] Other reagents were purchased from MedChemExpress (Monmouth Junction, NJ, USA), Sigma (St. Louis, MO, USA), or Tocris Bioscience (Bristol, UK).
NMDA receptors were activated with 100 µM NMDA plus 10 µM glycine unless otherwise stated. […] Kinetics of transient processes of more than 20 ms duration were approximated with single or double exponential functions. In case of double exponential fitting, the weighted time constant was used.

native NMDA receptors [4] = conditions: cited from earlier work; remark: listed apart in the source
[5] = system: animal pancreatitis models; conditions: cited from earlier work
[6] = system: rat retinal excitotoxicity model; conditions: cited from earlier work
[7] = biological target: GLUN2B-containing NMDA receptor; conditions: fractionated rat brain membranes; read-out: IC50 of [3H]ifenprodil binding inhibition; cited from earlier work
[8] = Equation (2) with fixed zδ (0.55 mono-, 1.1 dicationic), reanalysis of earlier data [16],[17], read-out: Kvd, fixed zδ (converted)
[9] = Equation (2) with fixed zδ (0.55 mono-, 1.1 dicationic), reanalysis of earlier data [16],[17], read-out: Kvi, fixed zδ (converted)
[10] = −80 mV holding voltage, native NMDA receptors, earlier papers of the authors, read-out: IC50, −80 mV

For `N=C(N)c1ccc(-c2ccc(-c3ccc(C(=N)N)cc3)o2)cc1` [Furamidine], which Kd (native NMDA receptors [1]; Equation (2) fit, zδ free, reanalysis of the authors' earlier voltage dependence data [16],[17], read-out: Kvd) is on record?
The Kd was 20 ± 5 µM.

And the Kd (native NMDA receptors [1]; Equation (2) fit, zδ free, reanalysis of the authors' earlier voltage dependence data [16],[17], read-out: Kvi)?
Its Kd is 3.4 ± 0.4 µM.

What about the Kd (native NMDA receptors [1]; [8]) of the same compound?
Its Kd is 21.8 µM.

And the Kd (native NMDA receptors [1]; [9])?
Its Kd is 3.3 µM.

And the “type of channel block (interaction with channel gate)” value (native NMDA receptors [2])?
The value was “foot-in-the-door”.

And the IC50 (native NMDA receptors [2]; [10])?
Its IC50 is 0.64 ± 0.13 µM.

What about the “change of inhibition with increase of NMDA concentration from 30 to 1000 µM” value (native NMDA receptors [3]; holding voltage not stated) of the same compound?
The value was “not attenuated significantly”.

What about the “voltage dependence of NMDA receptor inhibition” value (native NMDA receptors [4]) of the same compound?
Its value is “strongly voltage-dependent”.

Which “inhibition at high NMDA concentrations” value (native NMDA receptors [3]; 5 µM, high NMDA concentrations) does the source give for `NC(CCCP(=O)(O)O)C(=O)O` [D-AP5] here?
Its value is “became weak, decaying to zero”.

For `CC12CC3CC(C)(C1)CC(N)(C3)C2` [Memantine], which IC50 (native NMDA receptors [2]; −30 mV, 1 mM Mg2+, read-out: IC50 in the presence of magnesium) is on record?
The IC50 was 6.4 ± 0.5 µM.

What does the source list for `N=C(N)c1ccc(-c2cc3ccc(C(=N)N)cc3[nH]2)cc1` [DAPI]?
Kd (native NMDA receptors [1]; [8]): 5000 µM; Kd (native NMDA receptors [1]; [9]): 3.16 µM; Kd (native NMDA receptors [1]; fit with consensus zδ, read-out: binding constant for the deep site (Kvd)): > 1000 µM; type of channel block (interaction with channel gate) (native NMDA receptors [2]): foot-in-the-door; IC50 (native NMDA receptors [2]; [10]): 3.1 ± 0.6 µM; change of inhibition with increase of NMDA concentration (native NMDA receptors [3]; −30 mV): agonist-dependent; inhibition at 1 mM NMDA (native NMDA receptors [3]; −30 mV, 1 mM NMDA): remained significant; change of inhibition with increase of NMDA concentration from 30 to 1000 µM (native NMDA receptors [3]; −80 mV): agonist-dependent; voltage dependence of NMDA receptor inhibition (native NMDA receptors [4]): Completely voltage-independent

With `N=C(N)c1ccc2cc(OC(=O)c3ccc(NC4=NCCN4)cc3)ccc2c1` [Sepimostat] as the compound, how does the “activity in animal pancreatitis models” value [5] read?
Its value is “significant activity”.

What about the “voltage dependence of NMDA receptor inhibition” value (native NMDA receptors [1]; 5 µM) of the same compound?
Its value is “mostly voltage-independent with a small voltage-dependent component”.

What about the Kd (native NMDA receptors [1]; Equation (2) fit, zδ free, steady-state, read-out: Kvd, constant for voltage-dependent binding (deep site)) of the same compound?
Its Kd is ~130 µM.

What about the Kd (native NMDA receptors [1]; Equation (2) fit, zδ free, steady-state, read-out: Kvi, constant for voltage-independent binding (shallow site)) of the same compound?
Its Kd is 7 ± 1 µM.

And the Kd (native NMDA receptors [1]; Equation (2) with fixed zδ 0.55 (monocation), read-out: Kvd, fixed zδ (converted))?
Its Kd is 102 µM.

And the Kd (native NMDA receptors [1]; Equation (2) with fixed zδ 0.55 (monocation), read-out: Kvi, fixed zδ (converted))?
The Kd was 7 ± 1 µM.

What about the “nature of voltage-independent component of inhibition” value (native NMDA receptors [3]) of the same compound?
Its value is “agonist-dependent but non-competitive”.

What about the “% block” value (native NMDA receptors [3]; 5 µM, 3 mM NMDA, +30 mV, n = 4) of the same compound?
The value was 25 ± 4%.

What about the “% block” value (native NMDA receptors [3]; 5 µM, 3 mM NMDA, −30 mV, n = 10) of the same compound?
The value was 20 ± 5%.

And the “inhibition at high NMDA concentrations” value (native NMDA receptors [3]; 5 µM, 1000 and 3000 µM NMDA, −80 mV)?
The value was “about 50%”.

What about the “% block” value (native NMDA receptors [3]; 5 µM, +30 mV, representative trace, Figure 2A) of the same compound?
Its value is 47%.

And the “% block” value (native NMDA receptors [3]; 5 µM, −30 mV, NMDA 30 µM, Figure 5A)?
Its value is 78%.

What about the “% block” value (native NMDA receptors [3]; 5 µM, −30 mV, NMDA 1 mM, Figure 5A) of the same compound?
Its value is 26%.

What about the “% block” value (native NMDA receptors [3]; 5 µM, −30 mV, representative trace, Figure 2A) of the same compound?
Its value is 49%.

And the “% block” value (native NMDA receptors [3]; 5 µM, −80 mV, NMDA 30 µM, Figure 5A)?
Its value is 78%.

What about the “% block” value (native NMDA receptors [3]; 5 µM, −80 mV, NMDA 1 mM, Figure 5A) of the same compound?
Its value is 44%.

What about the “% block” value (native NMDA receptors [3]; 5 µM, −80 mV, representative trace, Figure 2A) of the same compound?
The value was 57%.

And the “% block” value (native NMDA receptors [3]; 5 µM, −120 mV, representative trace, Figure 2A)?
The value was 72%.

And the “plateau/peak ratio in the presence of blocker” value (native NMDA receptors [3]; 10 µM, −80 mV, control 0.6 ± 0.1, n = 4)?
The value was 1.1 ± 0.3.

And the “normalized plateau/peak ratio ((IBS/IB0)/(ICS/IC0))” value (native NMDA receptors [3]; 10 µM, −80 mV, n = 4)?
Its value is 1.8 ± 0.1.

And the “trapping in double-pulse protocol” value (native NMDA receptors [3]; 30 µM, n = 5)?
The value was “no signs of trapping”.

And the τfall of overshoot (native NMDA receptors [3]; 30 µM, overshoot falling phase, n = 4)?
The τfall of overshoot was 770 ± 140 ms.

And the τrise of overshoot (native NMDA receptors [3]; 30 µM, overshoot rising phase, n = 4)?
The τrise of overshoot was 62 ± 15 ms.

What about the “amplitude of overshoot relative to steady-state control response” value (native NMDA receptors [3]; 30 µM, washout in the presence of agonists, n = 4) of the same compound?
The value was 1.8 ± 0.3.

What about the “% block” value (native NMDA receptors [3]; 30 µM, −80 mV) of the same compound?
Its value is > 90%.

And the “amplitude of tail currents relative to steady-state control response” value (native NMDA receptors [3]; 30 µM, −80 mV, washout in the absence of agonists, n = 6)?
Its value is 1.3 ± 0.5.

What about the IC50 (native NMDA receptors [3]; +30 mV holding voltage, steady-state, read-out: IC50, steady-state component) of the same compound?
Its IC50 is 5.8 ± 1.5 µM.

And the “change of inhibition with increase of NMDA concentration” value (native NMDA receptors [3]; −30 mV)?
The value was “attenuated”.

What about the “competition with Mg2+ for binding site in channel pore” value (native NMDA receptors [3]; −30 mV, 1 mM Mg2+) of the same compound?
Its value is “does not compete”.

What about the IC50 (native NMDA receptors [3]; −30 mV, 1 mM Mg2+, n = 7, read-out: IC50 in the presence of magnesium) of the same compound?
The IC50 was 3.6 ± 1.1 µM.

And the IC50 (native NMDA receptors [3]; −30 mV, no Mg2+, n = 5, read-out: IC50 in the absence of magnesium)?
The IC50 was 3.6 ± 1 µM.

And the “change of inhibition with increase of NMDA concentration from 30 to 1000 µM” value (native NMDA receptors [3]; −80 mV)?
The value was “significantly decreased”.

And the “type of channel block (interaction with channel gate)” value (native NMDA receptors [3]; −80 mV)?
Its value is “foot-in-the-door”.

What about the IC50 (native NMDA receptors [3]; −80 mV holding voltage, NMDA 100 µM + glycine 10 µM, steady-state (plateau) current, read-out: IC50, steady-state component) of the same compound?
Its IC50 is 3.5 ± 0.3 µM.

And the IC50 (native NMDA receptors [3]; −80 mV, NMDA 100 µM + glycine 10 µM, peak current, read-out: IC50, peak component)?
Its IC50 is 1.8 ± 0.4 µM.

What about the retinal protection [6] of the same compound?
The retinal protection was “retinoprotective properties”.

And the IC50 [7]?
The IC50 was 29.8 µM.
